Measured values as given in patent US11376234B2, “Ammonia metabolism promoter” (Kao Corporation, priority 2018, dated 2022).
Marks after values point to notes of the source that are not given here.

Assays:
[1] = test system: primary cultured hepatocytes; assay: Urea production of hepatocytes with citrulline and arginine (Reference Example); format: cell-based; details: 5 mM ammonium chloride, 24 hours; Arg+Cit 0.5 mM each, Cit 1 mM; vs control
Method: Cells were recovered from the liver of each mouse and dead cells were removed, in the same procedure as in Example 1. Thereafter, cells were suspended in a DMEM medium, seeded at 10^5 cells/well in a 24-well plate, and cultured.
The cells 24 hours after seeding were washed twice with PBS. Thereafter, the medium was replaced with an FBS, arginine, leucine free DMEM medium (D9443, Sigma), and 5 mM of ammonium chloride (control), ammonium chloride+0.5 mM of L-arginine+0.5 mM of L-citrulline (Arg+Cit), or ammonium chloride+1 mM of L-citrulline (Cit) was added thereto. The culture supernatant was collected 24 hours later, and the urea contained therein was quantitatively determined with QuantiChrom Urea Assay Kit (BioAssay Systems).

primary hepatocytes = assay: Amount of change in ammonia in culture medium of primary hepatocytes (Example 2); format: cell-based, mouse; details: for Ammonia change amount in culture medium, Increasing rate relative to control (%): 5 mM ammonium chloride, 24 hours, control = 100; for amount of change in ammonia in the culture medium relative to the control (in words): Dunnett's test, n=4
Method: For cells, a hepatocyte culture kit (derived from a 10-week-old male Balb/c mouse, 24 wells, 1×10^5 cells/well, Cosmo Bio) was used. A final concentration of 5 mM of ammonium chloride (015-02991, Wako) and 1.4 μM or 4.2 μM of the following catechins (EGC, Cg or ECg) were added to a medium containing high glucose DMEM (31053028, Gibco) containing GlutaMAX (35050-061, Gibco), penicillin/streptomycin (168-23191, Wako) and ascorbic acid (014-04801, Wako), and the cells were cultured therein: EGC (NH020203, Nagara Science Co., Ltd.); Cg (NH 021302, Nagara Science Co., Ltd.); and ECg (NH 020302, Nagara Science Co., Ltd.). Cells cultured in a medium without any added catechins were used as a control. The culture supernatant was collected 24 hours later, and the ammonia contained therein was quantitatively determined using an ammonia assay kit (Abcam). The decrement in the ammonia amount in the culture medium 24 hour after addition of ammonium chloride and catechins relative to the ammonia amount at the time of addition was defined as an amount of change in ammonia in the culture medium.
Each value in Table 1 represents the increasing rate of the amount of change in ammonia relative to that of the control. The statistical processing was performed by using multigroup comparison by Dunnett's test for n=4 per group (**: p <0.001, *: p<0.05).

Compound | amount of urea production by hepatocytes [1] | Ammonia change amount in culture medium, Increasing rate relative to control (%) (primary hepatocytes; 4.2 μM) | amount of change in ammonia in the culture medium relative to the control (in words) (primary hepatocytes; 4.2 μM) | Ammonia change amount in culture medium, Increasing rate relative to control (%) (primary hepatocytes; 1.4 μM)
NC(=O)NCCC[C@H](N)C(=O)O [Cit, L-citrulline] | significantly increased | – | – | –
catechin gallate [Cg] | – | 174* % | significantly increases | –
O=C(O[C@@H]1Cc2c(O)cc(O)cc2O[C@@H]1c1ccc(O)c(O)c1)c1cc(O)c(O)c(O)c1 [ECg, epicatechin gallate] | – | 126% | – | –
Oc1cc(O)c2c(c1)O[C@H](c1cc(O)c(O)c(O)c1)[C@H](O)C2 [EGC, epigallocatechin] | – | 186** % | significantly increases | 122
